EP1724268A1, “COMPOUND HAVING TGF-BETA INHIBITORY ACTIVITY AND PHARMACEUTICAL COMPOSITION CONTAINING SAME” (KIRIN BEER KABUSHIKI KAISHA, priority 2004, dated 2005)

Test system: TGFβ signal
Experiment: TGFβ signal inhibitory activity, (SBE)4-Luc reporter in A549 cells (Test Examples 1A and 1B)
Assay type: cell-based, human
Settings: Homo sapiens, A549, compounds of Reference Examples (Test Example 1B), read-out: TGFβ inhibition rate, %
Method in brief: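 Stable A549 line carrying (SBE)4-Luc Smad3-binding reporter treated with compound plus TGFβ-1 (2 ng/ml) for 4 hr; luciferase read by chemiluminescence. Percent inhibition relative to TGFβ-only and untreated cells, tested at 3 µM and 10 µM, some also at 1 µM.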

COc1ccc(-c2nc(C)ccc2Oc2ccnc3cc(OC)c(OC)cc23)cc1 [Compound r249]
inhibition at 3 µM: 52% | inhibition at 10 µM: 98%

COc1cc2nccc(Oc3ccc(C)nc3-c3ccc(Oc4ccccc4)cc3)c2cc1OC [Compound r250]
inhibition at 3 µM: 34% | inhibition at 10 µM: 81%

COc1cc2nccc(Oc3ccc(C)nc3-c3ccc(F)cc3)c2cc1OC [Compound r251]
inhibition at 3 µM: 84% | inhibition at 10 µM: 100%

COc1cc2nccc(Oc3ccc(C)nc3-c3ccc(Cl)cc3)c2cc1OC [Compound r252]
inhibition at 3 µM: 16% | inhibition at 10 µM: 78%

COc1cc2nccc(Oc3ccc(C)nc3-c3c(Cl)cccc3Cl)c2cc1OC [Compound r253]
inhibition at 3 µM: 68% | inhibition at 10 µM: 97%

COc1cc2nccc(Oc3ccc(C)nc3-c3cc(F)cc(F)c3)c2cc1OC [Compound r254]
inhibition at 3 µM: 100% | inhibition at 10 µM: 100%

COc1cc2nccc(Oc3ccc(C)nc3-c3cc(C)n(C)n3)c2cc1OC [Compound r256, 4-[2-(1,5-Dimethyl-1H-pyrazol-3-yl)-6-methyl-pyridin-3-yloxy]-6,7-dimethoxy-quinoline]
inhibition at 3 µM: 98% | inhibition at 10 µM: 100%

COc1cc2nccc(Oc3ccc(C)nc3-c3cc(C)nn3C)c2cc1OC [Compound r257]
inhibition at 3 µM: 15% | inhibition at 10 µM: 62%

COc1cc2nccc(Oc3cc(C)c(C)nc3-c3nc(C)c(C)s3)c2cc1OC [Compound r260, 4-[2-(4,5-Dimethylthiazol-2-yl)-5,6-dimethyl-pyridin-3-yloxy]-6,7-dimethoxy-quinoline]
inhibition at 3 µM: 96% | inhibition at 10 µM: 100%

COc1cc2nccc(Oc3ccc(C)nc3-c3cccnc3)c2cc1OC [Compound r262]
inhibition at 3 µM: 91% | inhibition at 10 µM: 100%

COc1cc2nccc(Oc3ccc(C)nc3-c3ccncc3)c2cc1OC [Compound r263]
inhibition at 3 µM: 82% | inhibition at 10 µM: 99%

COc1cc2nccc(Oc3ccc(C)nc3-c3cccc(C)n3)c2cc1OC [Compound r264]
inhibition at 3 µM: 88% | inhibition at 10 µM: 100%

COc1cc2nccc(Oc3ccc(C)nc3-c3cncnc3)c2cc1OC [Compound r265]
inhibition at 3 µM: 45% | inhibition at 10 µM: 85%

COc1cc2nccc(Oc3ccc(SC)nc3-c3ccccn3)c2cc1OC [Compound r266]
inhibition at 3 µM: 92% | inhibition at 10 µM: 100%

COc1cc2nccc(Oc3cc(C)c(C)nc3-c3ccccn3)c2cc1OC [Compound r269]
inhibition at 1 µM (1 µM): 97%

COc1cc2nccc(Oc3cc(C)c(C)nc3-c3cccnc3)c2cc1OC [Compound r270]
inhibition at 3 µM: 100%

COc1cc2nccc(Oc3cc(C)c(C)nc3-c3cccc(C)n3)c2cc1OC [Compound r271]
inhibition at 3 µM: 94% | inhibition at 10 µM: 100%

COc1cc2nccc(Oc3cc(C)c(C)nc3-c3ccc(C)cn3)c2cc1OC [Compound r272]
inhibition at 3 µM: 98% | inhibition at 10 µM: 100%

COc1cc2nccc(Oc3cc(C)c(C)nc3-c3cc(C)ccn3)c2cc1OC [Compound r273]
inhibition at 3 µM: 99% | inhibition at 10 µM: 100%

COc1cc2nccc(Oc3cc4ccccc4nc3CN(C(C)C)C(C)C)c2cc1OC [Compound r277, [3-(6,7-Dimethoxy-quinolin-4-yloxy)-quinolin-2-ylmethyl]-diisopropyl-amine]
inhibition at 3 µM: 32% | inhibition at 10 µM: 89%

COc1cc2nccc(Oc3cc4ccccc4nc3C(C)=O)c2cc1OC [Compound r278, 1-[3-(6,7-Dimethoxy-quinolin-4-yloxy)-quinolin-2-yl]-ethanone]
inhibition at 3 µM: 90% | inhibition at 10 µM: 99%

COc1cc2nccc(Oc3cc4ccccc4nc3Br)c2cc1OC [Compound r281, 4-(2-Bromo-quinolin-3-yloxy)-6,7-dimethoxy-quinoline]
inhibition at 3 µM: 88% | inhibition at 10 µM: 100%

COc1cc2nccc(Oc3cc4ccccc4nc3-c3ccccc3)c2cc1OC [Compound r283, 6,7-Dimethoxy-4-(2-phenyl-quinolin-3-yloxy)-quinoline]
inhibition at 3 µM: 99% | inhibition at 10 µM: 100%

COc1cc2nccc(Oc3cc4ccccc4nc3-c3cccc(CO)c3)c2cc1OC [Compound r284, {3-[3-(6,7-Dimethoxy-quinolin-4-yloxy)-quinolin-2-yl]-phenyl}-methanol]
inhibition at 3 µM: 96% | inhibition at 10 µM: 100%

COc1cc2nccc(Oc3cc4ccccc4nc3-c3cccnc3)c2cc1OC [Compound r288]
inhibition at 3 µM: 94% | inhibition at 10 µM: 100%

COc1cc2nccc(Oc3ccc4ncsc4c3-c3ccccc3)c2cc1OC [Compound r295]
inhibition at 3 µM: 47% | inhibition at 10 µM: 96%

COc1cc2nccc(Oc3cc4cccnc4cc3OC)c2cc1OC [Compound r297, 6,7-Dimethoxy-4-(7-methoxy-quinolin-6-yloxy)-quinoline]
inhibition at 3 µM: 61% | inhibition at 10 µM: 94%

COc1cc2nccc(Oc3cc4cccnc4cc3-c3ccccc3)c2cc1OC [Compound r299, 6,7-Dimethoxy-4-(7-phenyl-quinolin-6-yloxy)-quinoline]
inhibition at 3 µM: 99% | inhibition at 10 µM: 100%

COc1cc2nccc(Oc3cc4ccncc4cc3C)c2cc1OC [Compound r300, 6,7-Dimethoxy-4-(7-methyl-isoquinolin-6-yloxy)-quinoline]
inhibition at 3 µM: 9% | inhibition at 10 µM: 63%

COc1cc2nccc(Oc3cc4ccncc4cc3Br)c2cc1OC [Compound r301, 4-(7-Bromo-isoquinolin-6-yloxy)-6,7-dimethoxy-quinoline]
inhibition at 3 µM: 20% | inhibition at 10 µM: 75%

COc1cc2nccc(Oc3cc4ccncc4cc3-c3ccccn3)c2cc1OC [Compound r303, 6,7-Dimethoxy-4-(7-pyridin-2-yl-isoquinolin-6-yloxy)-quinoline]
inhibition at 3 µM: 96%

COc1cc2nccc(Oc3cc4cncnc4cc3C)c2cc1OC [Compound r305, 6-(6,7-Dimethoxy-quinolin-4-yloxy)-7-methyl-quinazoline]
inhibition at 3 µM: 28% | inhibition at 10 µM: 64%

COc1cc2nccc(Oc3ccnc4ccsc34)c2cc1OC [Compound r307]
inhibition at 3 µM: 26% | inhibition at 10 µM: 69%

COc1cc2nccc(Oc3cc(C)nc4ccc(F)cc34)c2cc1OC [Compound r308]
inhibition at 3 µM: 21% | inhibition at 10 µM: 56%

COc1cc2nccc(Oc3cc(C)nc4ccccc34)c2cc1OC [Compound r309]
inhibition at 3 µM: 41% | inhibition at 10 µM: 79%

COc1cc2nccc(Oc3cc4cccnc4nc3C)c2cc1OC [Compound r310]
inhibition at 3 µM: 72% | inhibition at 10 µM: 97%

COc1cc2c(Oc3cc(C)c(C)cc3C(C)=O)ccnc2cc1OCc1ccccc1 [Compound r313]
inhibition at 3 µM: 56% | inhibition at 10 µM: 94%

COc1cc2c(Oc3cc(C)c(C)cc3C(C)=O)ccnc2cc1O [Compound r314]
inhibition at 3 µM: 50% | inhibition at 10 µM: 89%

COc1cc2c(Oc3cc(C)c(C)cc3C(C)=O)ccnc2cc1OCCCl [Compound r315]
inhibition at 3 µM: 98% | inhibition at 10 µM: 100%

COc1cc2c(Oc3cc(C)c(C)cc3C(C)=O)ccnc2cc1OCCN1CCOCC1 [Compound r316]
inhibition at 3 µM: 99% | inhibition at 10 µM: 100%

COc1cc2c(Oc3cc(C)c(C)cc3C(C)=O)ccnc2cc1OCCn1ccnc1 [Compound r317]
inhibition at 3 µM: 100% | inhibition at 10 µM: 100%

COc1cc2c(Oc3cc(C)c(C)cc3C(C)=O)ccnc2cc1OCCCCl [Compound r318]
inhibition at 3 µM: 82% | inhibition at 10 µM: 100%

COc1cc2c(Oc3cc(C)c(C)cc3C(C)=O)ccnc2cc1OCCCn1ccnc1 [Compound r321]
inhibition at 3 µM: 100% | inhibition at 10 µM: 100%

CCCOC(=O)c1cc2ccccc2cc1Oc1ccnc2cc(OCCCl)c(OC)cc12 [Compound r322]
inhibition at 3 µM: 50% | inhibition at 10 µM: 88%

CCCOC(=O)c1cc2ccccc2cc1Oc1ccnc2cc(OCCN3CCOCC3)c(OC)cc12 [Compound r323]
inhibition at 3 µM: 89% | inhibition at 10 µM: 100%

CCCOC(=O)c1cc2ccccc2cc1Oc1ccnc2cc(OCCn3ccnc3)c(OC)cc12 [Compound r324]
inhibition at 3 µM: 86% | inhibition at 10 µM: 100%

CCCOC(=O)c1cc2ccccc2cc1Oc1ccnc2cc(OCCCCl)c(OC)cc12 [Compound r325]
inhibition at 3 µM: 19% | inhibition at 10 µM: 60%

CCCOC(=O)c1cc2ccccc2cc1Oc1ccnc2cc(OCCCN3CCOCC3)c(OC)cc12 [Compound r326]
inhibition at 3 µM: 83% | inhibition at 10 µM: 100%

CCCOC(=O)c1cc2ccccc2cc1Oc1ccnc2cc(OCCCn3ccnc3)c(OC)cc12 [Compound r327]
inhibition at 3 µM: 89% | inhibition at 10 µM: 100%

COc1cc2c(Oc3ccc(C)nc3-c3nccs3)ccnc2cc1OCc1ccccc1 [Compound r328]
inhibition at 3 µM: 100% | inhibition at 10 µM: 100%

COc1cc2c(Oc3ccc(C)nc3-c3nccs3)ccnc2cc1O [Compound r329]
inhibition at 3 µM: 100% | inhibition at 10 µM: 100%

COc1cc2c(Oc3ccc(C)nc3-c3nccs3)ccnc2cc1OCC(CO)CO [Compound r330]
inhibition at 3 µM: 100% | inhibition at 10 µM: 100%

COc1cc2c(Oc3cc(C)c(C)nc3-c3ccccc3)ccnc2cc1OCc1ccccc1 [Compound r331]
inhibition at 3 µM: 73% | inhibition at 10 µM: 90%

COc1cc2c(Oc3cc(C)c(C)nc3-c3ccccc3)ccnc2cc1O [Compound r332]
inhibition at 3 µM: 97% | inhibition at 10 µM: 100%

COc1cc2c(Oc3cc(C)c(C)nc3-c3ccccc3)ccnc2cc1OCCO [Compound r333]
inhibition at 3 µM: 100%

COc1cc2c(Oc3cc(C)c(C)nc3-c3ccccc3)ccnc2cc1OCC1CO1 (stereo not drawn) [Compound r334]
inhibition at 3 µM: 99%

COc1cc2c(Oc3cc(C)c(C)nc3-c3ccccc3)ccnc2cc1OCC(O)CO (stereo not drawn) [Compound r335]
inhibition at 3 µM: 100%
